From patent publication US7897369B2, “Isoprenoid wax ester synthases, isoprenoid acyl CoA-synthetases, and uses thereof” (Regents of the University of Minnesota, priority 2007, dated 2011)
“Also recorded” adds a separate entry of the source. Values belong to the compound of their own block, whether it stands above or below them.

Assays:
[1] = tested on: WS1; test: DGAT assay (TLC); assay type: biochemical, Marinobacter hydrocarbonoclasticus DSM 8798; details: oleoyl-CoA as acyl donor, dipalmitoyl-glycerol as acyl acceptor
Text: (§1) TLC plates were stained with either iodine vapor or anisaldehyde solution as described earlier (Jork et al., 1990. Thin-layer chromatography reagents and detection methods, vol. 1a. Physical and chemical detection methods: fundamentals, reagents. VHC, Weinheim, Germany). Palmitoyl palmitate and triolein were used as WE and TAG reference compounds, respectively.

[2] = target: T1, WS2 (Marinobacter nauticus, UniProt A3RE51); test: DGAT assay (TLC); assay type: biochemical, Marinobacter hydrocarbonoclasticus DSM 8798; details: oleoyl-CoA as acyl donor, dipalmitoyl-glycerol as acyl acceptor
Text: as §1

[3] = target: T1, WS2; test: WS2 kinetics on ethanol and oleoyl-CoA (DTNB); assay type: biochemical, Marinobacter hydrocarbonoclasticus
Description: […] Assay reactions were pre-incubated at 37° C. for 5 minutes before the reactions were started by the addition of enzyme.

[4] = tested on: WS3; test: Coupled enzyme assay, WS substrate profile (TLC); assay type: biochemical, Marinobacter hydrocarbonoclasticus DSM 8798; details: coupled reaction; palmitic acid with hexadecanol, phytanic acid with phytol
Description: (§2) Stock solutions of various substrates were prepared in 50 mM Tris-HCl buffer (pH 8) containing 1% gum arabic, 12.5 μg bovine serum albumin ml^−1, 0.1% taurocholate, and either 100 mM fatty acid, isoprenoid acid, fatty alcohol, or isoprenoid alcohol. Stock solutions were sonicated to disperse the substrates. Substrate profiles of the three WS were tested using coupled enzyme in vitro reactions in which the CoA synthetases Acs1 and Acs2 are added to synthesize the CoA-activated fatty acid phytanic acid substrates from corresponding acid precursors for the WS reactions. Assays were carried out in 500-μl reactions containing in 50 mM Tris-HCl buffer (pH 8.0), 12.5 μl of each acid, and alcohol substrate stock solution (final concentrations of each substrate of 250 μM), 10 mM MgCl2, 10 mM CoASH, 10 mM ATP, 5 mM TCEP, 0.1 U of inorganic pyrophosphatase, 0.25 μg of Acs1 and Acs2 CoA synthetase, and 0.5 μg of WS to be tested. Assays were incubated at 37° C. overnight before thin-layer chromatography (TLC) analysis of the reaction products.
(§3) In vitro WS assay samples were extracted with 500 μl of chloroformmethanol (1:1 [vol/vol]), and extracts were analyzed by TLC with Whatman normal phase silica gel 60 plates and developed using hexane-diethyl ether-acetic acid (90:10:1 [vol/vol/vol]). […]

[5] = target: T1, WS2; test: Coupled enzyme assay, WS substrate profile (TLC); assay type: biochemical, Marinobacter hydrocarbonoclasticus DSM 8798; parameters: key to WE formation (spot intensity of wax ester products on TLC), WS2, C16 / WE formation (spot intensity of wax ester products on TLC), WS2, Phytol / WE formation (spot intensity of wax ester products on TLC), WS2, Farnesol / WE formation (spot intensity of wax ester products on TLC), WS2, C10 / WE formation (spot intensity of wax ester products on TLC), WS2, C12 / WE formation (spot intensity of wax ester products on TLC), WS2, C14: no activity (−); ranging from no activity (−) to most active (+++); ranging from no activity (−) to most active (+++); most active (+++)
Description: as §2
as §1, with “In vitro WS assay samples were extracted with 500 μl of chloroformmethanol (1:1 [vol/vol]), and extracts were analyzed by TLC with Whatman normal phase silica gel 60 plates and developed using hexane-diethyl ether-acetic acid (90:10:1 [vol/vol/vol]). TLC” for “TLC”

[6] = target: T2, Acinetobacter WS/DGAT (Acinetobacter baylyi, UniProt Q8GGG1); test: Coupled enzyme assay (TLC); assay type: biochemical, Acinetobacter baylyi ADP1; details: phytanic acid and phytol as substrates
T2 construct: His6 (N); made in house
T2 sequence (Q8GGG1 1-458): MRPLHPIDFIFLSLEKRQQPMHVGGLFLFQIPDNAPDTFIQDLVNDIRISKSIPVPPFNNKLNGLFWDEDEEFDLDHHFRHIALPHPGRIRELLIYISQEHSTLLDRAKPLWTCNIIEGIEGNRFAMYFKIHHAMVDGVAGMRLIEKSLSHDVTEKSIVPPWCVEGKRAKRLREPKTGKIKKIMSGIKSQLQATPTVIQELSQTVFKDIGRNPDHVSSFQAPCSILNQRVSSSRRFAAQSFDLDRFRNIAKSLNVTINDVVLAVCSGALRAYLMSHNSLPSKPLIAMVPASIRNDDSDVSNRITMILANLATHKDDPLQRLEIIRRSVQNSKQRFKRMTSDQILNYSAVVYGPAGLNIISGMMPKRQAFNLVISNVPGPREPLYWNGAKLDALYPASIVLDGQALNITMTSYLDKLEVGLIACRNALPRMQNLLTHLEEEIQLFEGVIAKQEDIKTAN
Description: as §2, §3

[7] = tested on: WS1; test: Coupled enzyme assay, WS substrate profile (TLC); assay type: biochemical, Marinobacter hydrocarbonoclasticus DSM 8798; parameters: key to WE formation (spot intensity of wax ester products on TLC), WS1, C10 / WE formation (spot intensity of wax ester products on TLC), WS1, C12 / WE formation (spot intensity of wax ester products on TLC), WS1, C14 / WE formation (spot intensity of wax ester products on TLC), WS1, C16 / WE formation (spot intensity of wax ester products on TLC), WS1, Phytol / WE formation (spot intensity of wax ester products on TLC), WS1, Farnesol: no activity (−); ranging from no activity (−) to most active (+++); ranging from no activity (−) to most active (+++); most active (+++)
Description: as §2
as §1, with “In vitro WS assay samples were extracted with 500 μl of chloroformmethanol (1:1 [vol/vol]), and extracts were analyzed by TLC with Whatman normal phase silica gel 60 plates and developed using hexane-diethyl ether-acetic acid (90:10:1 [vol/vol/vol]). TLC” for “TLC”

[8] = tested on: Acs1; test: CoA synthetase assay (HPLC, LC-MS); assay type: biochemical, Marinobacter hydrocarbonoclasticus DSM 8798; details: 10 mM acid, 20 min at 37° C.
Description: (§4) In vitro reactions were performed as described previously (Trivedi et al., 2004, Nature, 428:441-445) with some modifications. CoA synthetase assays were carried out in 250-μl reaction volumes containing 50 mM Tris-HCl buffer (pH 7.5), 0.1% Triton X-100, 10 mM MgCl2, 5 mM TCEP, 0.1 U of inorganic pyrophosphatase, and as substrates 10 mM phytanic or fatty acids, 10 mM reduced coenzyme A (CoASH), 10 mM ATP, and 0.5 μg of purified Acs (either 1, 2, 3, or 4) protein. The reactions were incubated for 20 min at 37° C. and stopped with 25 μl of 5% acetic acid, followed by HPLC analysis of the reaction products.
(§5) CoA-synthetase assay samples (25 μl) were resolved on an Agilent 1100 HPLC (Agilent Technologies, Palo Alto, Calif.) equipped with a photodiode array detector set to 259 nm. Samples were separated on a reversed-phase Eclipse XDB-C8 column (Agilent Technologies) at a flow rate of 1 ml min^−1. Solvent A consisted of 20 mM ammonium acetate (pH 5.4) in HPLC-grade water, and solvent B contained acetonitrile and methanol (85:15 [vol/vol]). Acyl-CoA and phytanoyl-CoA products were eluted using the following conditions: solvent A-solvent B at 65:35 from 0 to 5 min, followed by a gradient from solvent A-solvent B at 65:35 to 100% solvent B in 30 min. Liquid chromatography-mass spectrometry (LC-MS) analyses of reaction products were done with an LCQ mass spectrophotometer equipped with an electrospray ionization source (ESI) (Thermo Finnigan). Mass fragmentation spectra were monitored in a mass range of m/z 400 to 1,500 with a negative ESI interface.

[9] = tested on: Acs4; test: CoA synthetase assay (HPLC, LC-MS); assay type: biochemical, Marinobacter hydrocarbonoclasticus DSM 8798; details: 10 mM acid, 20 min at 37° C.
Description: as §4, §5

[10] = tested on: Acs3; test: CoA synthetase assay (HPLC, LC-MS); assay type: biochemical, Marinobacter hydrocarbonoclasticus DSM 8798; details: 10 mM acid, 20 min at 37° C.
Description: as §4, §5

[11] = tested on: Acs2; test: CoA synthetase assay (HPLC, LC-MS); assay type: biochemical, Marinobacter hydrocarbonoclasticus DSM 8798; details: 10 mM acid, 20 min at 37° C.
Description: as §4, §5

[12] = tested on: FadD; test: CoA synthetase assay (HPLC, LC-MS); assay type: biochemical, Pseudomonas putida; details: purified recombinant protein
[13] = alcohol farnesol, 12 h at 37° C., each substrate 250 μM
[14] = alcohol phytol, 12 h at 37° C., each substrate 250 μM
[15] = coupled reaction, palmitic acid with hexadecanol, phytanic acid with phytol, phytanoyl-CoA with the alcohols named in the value
[16] = fatty alcohol C10, 12 h at 37° C., each substrate 250 μM
[17] = fatty alcohol C12, 12 h at 37° C., each substrate 250 μM
[18] = fatty alcohol C14, 12 h at 37° C., each substrate 250 μM
[19] = fatty alcohol C16, 12 h at 37° C., each substrate 250 μM

T1 sequence (A3RE51 entry or part of it): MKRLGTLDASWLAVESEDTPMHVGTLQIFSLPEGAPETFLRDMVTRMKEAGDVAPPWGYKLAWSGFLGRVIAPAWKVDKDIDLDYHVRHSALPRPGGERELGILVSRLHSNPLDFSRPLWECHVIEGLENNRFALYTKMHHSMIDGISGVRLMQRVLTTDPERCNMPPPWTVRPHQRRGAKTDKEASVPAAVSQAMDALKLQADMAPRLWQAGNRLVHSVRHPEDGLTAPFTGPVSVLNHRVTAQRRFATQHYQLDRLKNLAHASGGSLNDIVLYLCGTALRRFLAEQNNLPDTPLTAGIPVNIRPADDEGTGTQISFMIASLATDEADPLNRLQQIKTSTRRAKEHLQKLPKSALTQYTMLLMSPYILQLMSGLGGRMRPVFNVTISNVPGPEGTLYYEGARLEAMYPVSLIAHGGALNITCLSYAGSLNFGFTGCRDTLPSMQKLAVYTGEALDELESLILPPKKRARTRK

DGAT activity of WS2 (TAG product on TLC) [2]: did not show DGAT activity
Kcat of WS2 ([3]; steady state on ethanol and oleoyl-CoA): 59 s⁻¹
Vmax of WS2 ([3]; steady state, varied substrate 10 μM-250 μM, other substrate (oleoyl-CoA or ethanol) 500 μM): 1667 μmol (mg/min)^−1
SMILES: CCCCCCCC/C=C\CCCCCCCC(=O)SCCNC(=O)CCNC(=O)[C@H](O)C(C)(C)COP(=O)(O)OP(=O)(O)OC[C@H]1O[C@@H](n2cnc3c(N)ncnc32)[C@H](O)[C@@H]1OP(=O)(O)O [Oleoyl-CoA]
DGAT activity of WS1 (TAG product on TLC) [1]: TAG products were only detected for WS1; also recorded: Only WS1 shows DGAT activity

SMILES: CC(C)CCCC(C)CCCC(C)CCCC(C)CC(=O)O (stereo not shown) [Phytanic acid]
WE product formation by WS3 (TLC), in words [4]: no products were observed
WE formation (spot intensity of wax ester products on TLC), WS2, Farnesol [5, 13]: ++
WE formation (spot intensity of wax ester products on TLC), WS2, Phytol [5, 14]: ++
WE product formation by WS2 (TLC), in words [5, 15]: Products were observed
WE formation (spot intensity of wax ester products on TLC), WS2, C10 [5, 16]: −
WE formation (spot intensity of wax ester products on TLC), WS2, C12 [5, 17]: −
WE formation (spot intensity of wax ester products on TLC), WS2, C14 [5, 18]: −
WE formation (spot intensity of wax ester products on TLC), WS2, C16 [5, 19]: −
Isoprenoid WE formation by Acinetobacter WS/DGAT [6]: did not show isoprenoid WE formation
WE formation (spot intensity of wax ester products on TLC), WS1, Farnesol [7, 13]: +
WE formation (spot intensity of wax ester products on TLC), WS1, Phytol [7, 14]: +
WE product formation by WS1 (TLC), in words [7, 15]: Products were observed
WE formation (spot intensity of wax ester products on TLC), WS1, C10 [7, 16]: −
WE formation (spot intensity of wax ester products on TLC), WS1, C12 [7, 17]: −
WE formation (spot intensity of wax ester products on TLC), WS1, C14 [7, 18]: −
WE formation (spot intensity of wax ester products on TLC), WS1, C16 [7, 19]: −
CoA activation by Acs1 [8]: Only Acs2 converted phytanic acid into phytanoyl-CoA
CoA activation by Acs4 [9]: Only Acs2 converted phytanic acid into phytanoyl-CoA
CoA activation by Acs3 [10]: Only Acs2 converted phytanic acid into phytanoyl-CoA
CoA activation by Acs2 [11]: converted phytanic acid into phytanoyl-CoA
CoA activation by P. putida FadD [12]: does not synthesize phytanoyl-CoA; also recorded: did not activate phytanic acid
